# Counter-ions that a name gives are not always drawn.
# Legend:
# [1] = pharmacokinetics of octreotide after subcutaneous injection
# Text: (§1) For patients with acromegaly, there may be a different pharmacokinetic profile.
# [2] = distribution of octreotide in blood (erythrocytes, plasma binding)
# Text: as §1
# [3] = pharmacokinetics of octreotide after subcutaneous dosing in patients with acromegaly
# Text: as §1
smiles,measurement,setting,value
"C[C@@H](O)[C@@H]1NC(=O)[C@H](CCCCN)NC(=O)[C@@H](Cc2c[nH]c3ccccc23)NC(=O)[C@H](Cc2ccccc2)NC(=O)[C@@H](NC(=O)[C@H](N)Cc2ccccc2)CSSC[C@@H](C(=O)N[C@H](CO)[C@@H](C)O)NC1=O (relative stereo) [octreotide, L-cysteinamide, D-phenylalanyl-L-cysteinyl-L-phenylalanyl-D-tryptophyl-L-lysyl-L-threonyl-N-[2-hydroxy-1-(hydroxymethyl)propyl]-, cyclic (2#7)-disulfide; [R—(R*, R*)] acetate salt]",absorption from the injection site,[1]; after subcutaneous injection,absorbed completely
same,Vd,"[1]; human, plasma, subcutaneous",~13.6 L
same,clearance,"[1]; human, plasma, subcutaneous",117 to 167 mL/min
same,dose proportionality of peak concentrations and area under the curve values,"[1]; subcutaneous single doses up to 500 μg and multiple doses up to 500 μg three times a day (1,500 μg/day)",dose proportional
same,peak concentration,"[1]; subcutaneous, dose of 100 μg",about 5.2 ng/mL
same,time to peak concentration after dosing,"[1]; subcutaneous, dose of 100 μg",0.4 h
same,bound in the plasma,[2]; concentration-independent manner,about 65%
same,distribution into the erythrocytes,[2]; in blood,negligible
same,Vd,"[3]; human, in vivo, subcutaneous",~21.6 L
same,clearance,"[3]; human, in vivo, subcutaneous",~300 mL/min
same,time to mean peak concentration after subcutaneous dosing,"[3]; patients with acromegaly, 100 μg dose",about 0.7 hours
same,mean peak concentration,"[3]; patients with acromegaly, subcutaneous, 100 μg dose",about 2.8 ng/mL

# From patent US12350475B2 (SUN PHARMACEUTICAL INDUSTRIES LIMITED, priority 2020, dated 2025)
